In paper PMC9456400 (International Journal of Molecular Sciences, 2022):

Tests used:
[1] = cited from earlier work
Huh-7 cells = test: Oil Red O and LipidTOX staining of neutral lipids; assay type: cell-based, human; conditions: Huh-7, chronic exposure 7 days; silibinin 10 μmol/L as co-treatment with lorlatinib
Procedure: We first employed a conventional index of fatty liver disease––the intracellular accumulation of neutral lipids (steatosis)––to confirm the ability of lorlatinib to trigger hypertriglyceridemia and hypercholesteremia.
For assessment of neutral lipid formation, cells were washed in PBS, fixed with 4% paraformaldehyde for 30 min, washed in distilled water, and then briefly incubated in 60% isopropanol. Following equilibration, cells were stained with a working solution (60%) of Oil Red O for 20 min. An Oil Red O stock solution was prepared by dissolving 0.35% w/v Oil Red O in 100 mL 100% isopropanol. HCS LipidTOX™ Green Neutral Lipid Stain (Invitrogen; Cat. #H34475) was employed as a second staining cocktail for visualization of intracellular neutral lipids. Formaldehyde fixation and preparing/using the labeling solution was carried out as per the manufacturer’s instructions.

[2] = test system: H2228 NSCLC cell line (ALK rearrangement variant 3a/b); test: MTT cell viability assay; conditions: read-out: IC50 (cell viability)
Procedure: (§1) Cell viability effects of lorlatinib were determined using the colorimetric MTT (3-4,5-dimethylthiazol-2-yl-2,5-diphenyl-tetrazolium bromide) reduction assay. Dose–response curves to graded concentrations of lorlatinib were plotted as a percentage of the control cell absorbance, which was obtained from control cells containing the vehicle (DMSO v/v) processed simultaneously. For each treatment, cell viability was evaluated using the following equation: (OD570 of the treated sample/OD570 of the untreated sample) × 100.

[3] = test system: H3122 NSCLC cell line (ALK rearrangement variant 1); test: MTT cell viability assay; conditions: read-out: IC50 (cell viability)
Procedure: as §1

[4] = pooled safety analysis (n = 295) ref 14, 15

IC50 [2]: 900 ± 200 nM
IC50 [3]: 3 ± 0.2 nM
Structure (SMILES): C[C@H]1Oc2cc(cnc2N)-c2c(nn(C)c2C#N)CN(C)C(=O)c2ccc(F)cc21 [lorlatinib, (10R)-7-amino-12-fluoro-2,10,16-trimethyl-15-oxo-10,15,16,17-tetrahydro-2H-8,4-(metheno)pyrazolo [4,3-h][2,5,11]-benzoxadiazacyclotetradecine-3-carbonitrile]
Incidence of hypercholesteremia and hypertriglyceridemia ([1]; lung cancer patients): > 80%
Hyperlipidemia, median time to onset ([1]; patients): 15 days
Frequency of grade 3 or 4 elevations in total cholesterol and triglycerides (both) ([1]; phase 2 study B7461001 (NCT01970865) ref 2): 16%
Incidence of hypercholesteremia [1, 4]: 61%
Incidence of hypertriglyceridemia [1, 4]: 82%
Accumulation of neutral lipids (lipid droplets) (Huh-7 cells): accumulated large amounts of lipid droplet-like neutral lipids
